How the values were obtained:
[1] = test system: SYF cells; experiment: Procollagen expression in SYF cells; format: cell-based; conditions: MBG 10 nM
Source text: (§1) To examine whether cardiotronic steroids induced collagen synthesis by signaling through the Na/K-ATPase, we performed the following studies. First, we used pharmacological antagonism at several steps in the Na/K-ATPase cascade. Specifically, we used pharmacological antagonism of Src activation with PP2, nonspecific tyrosine kinase inhibition with herbimycin, inhibition of EGFR transactivation with AG1478, and nonspecific antioxidant administration with N-acetyle cysteine. […] Next we performed studies in the SYF and SYF+ cells (details available in the online supplement).
(§2) The effects of PP2 (1 μmol/L), herbimycin (1 μmol/L), AG1478 (250 nM), and N-acetyl cysteine (2.5 mmol/L) on MBG (10 nM) stimulation of procollagen expression also were found. The PP2, herbimycin AG1478, and N-acetyl cysteine were administered from 2 hours before the addition of MBG and continued throughout the 24 hours of MBG incubation (total of 26 hours). Each bar represents the mean.+−.SEM of n=8 experiments. b, effects of PP2 (1 μmol/L) and N-acetyle cysteine (2.5 mmol/L) on MBG (10 nM)-stimulated proline incorporation into collagen. Again, the PP2 an N-acetyl cysteine were added 2 hours before exposure to MBG. Each bar represents the mean.+−.SEM of N=5 experiments. c, effects of MBG 10 nM on procollagen content in SYF and SYF+ cells. Representative Western blots are shown above quantitative data. […]

[2] = test system: SYF+ cells; experiment: Procollagen expression in SYF+ cells; format: cell-based; conditions: MBG 10 nM
Source text: as §1, §2

[3] = test system: isolated cardiac fibroblasts; experiment: Procollagen stability after cycloheximide in cardiac fibroblasts; format: cell-based, rat; conditions: 10 nM
Procedure: (§3) To further examine the molecular basis of this cardiac fibrosis, isolated cardiac fibroblasts were subjected to increase doses of MBG (10^−10, 10^−9, and 10^−8 M). […] Using collagenase digestion, we observed that the vast majority of the proline incorporation was into collagen. Using standardized RT-PCR, we observed a doubling of mRNA for collagen-1 at 24 hours in response to 10 nM of MBG.
(§4) Representative Western blot for procollagen and quantitative densitometric data obtained in response to different doses of (a) MBG (all N=10), (b) MBG 10 nM contrasted with different doses of ouabain (0.1 to 100 nM) and digoxin (10 nM; all N=8). c, ouabain sensitive Rb uptake as a function of MBG and ouabain concentration (N=4 at each concentration for both MBG and ouabain; data expressed as fraction of control). d, relative proline incorporation in the supernatant and matrix, both will and without collagenase digestion (total). Each group (controls and different doses of MBG) contains N=7 replicants. The difference between the total and after collagenase digestion is reported as collagen. […] Bars on quantitative graphs represent the mean.+−.SEM. *P<0.05 and **P<0.01 vs control.

[4] = test system: isolated cardiac fibroblasts; experiment: Collagen-1 mRNA by standardized RT-PCR in cardiac fibroblasts; format: cell-based, rat; conditions: 24 hours, 10 nM
Procedure: Standardized RT-PCR was used to measure gene expression, with GAPDH transcript used as the housekeeping gene, as reported previously.
as §3, §4

[5] = target: T1, Na/K-ATPase (Rattus norvegicus, UniProt P06685); experiment: Ouabain sensitive 86Rb uptake in cardiac fibroblasts; format: cell-based
T1 construct: In vitro studies were then pursued with cultured isolated cardiac fibroblasts; endogenous in cells; host or cells: primary isolated cardiac fibroblasts in culture
Procedure: as §3, §4

[6] = Plasma MBG and aldosterone 4 weeks after MBG minipump infusion in rats; format: in vivo, Sprague-Dawley rats; conditions: mean ± SEM
Procedure: Male, Sprague-Dawley rats were used for all of the studies. All of the animal experimentation described in the article was conducted in accordance with the National Institutes of Health Guide for the Care and use of Laboratory Animals using protocols approved by the Medical University of Ohio Institutional Animal Use and Care Committee.
Briefly, Sprague-Dawley rats weighing.apprxeq.250 g at the time of surgery were subjected to either sham surgery with no MBG infusion (Sham), sham surgery with placement of a minipump infusing MBG at 10 μg/kg per day (MBG), PNx, and PNx after immunization against MBG (PNx-IM). MBG of extremely high purity (>99%) was isolated from the venom of Bufa marinas by Kennedy et al. In addition to these maneuvers, a group of PNx animals was subjected to adrenalectomy as well (PNx-ADx).
(determined after extraction on a C-18 column using DELPHIA as described previously), aldosterone (determined with ELISA kit 10004377, Cayman Chemical) and cardiac immunohistochemistry (vida infra) were assessed 4 weeks after surgery.

[7] = test system: TGF-β, Smad 2/3, Smad 4, pSmad 2/3; experiment: TGF-β, Smad 2/3, Smad 4, pSmad 2/3 expression in fibroblasts (Western blot); format: cell-based, rat; conditions: 24 hours, 1 and 10 nM
Source text: To further examine the molecular mechanisms by which cardiotonic steroids induce collagen production in fibroblasts, we examined the effects of MBG on TGF-β expression, as well as the expression of Smad 2/3, Smad 4, and pSmad 2/3. […] Next, we examined whether TGF-β induced collagen production and whether there was synergism between TGF-β and MBG. […] However, it is important to point out that we never completely serum starve the primary cultures, and because serum is always present, some TGF-β is always present.
The effect of 24 hours of MBG (1 and 10 nM) on TGF-β, Smad 2/3, Smad 4, and pSmad 2/3 expression determined by Western blot. b and c, effects of 24 hours of MBG (10 nM), TGFβ(5 ng/mL), and the TGF-β receptor antagonist SB431542 ([…] on procollagen-1 expression (Western blot) and radiolabeled proline incorporation, respectively also were carried out. SB431542 was added 2 hours before exposure to either TGFβ or MBG (total of 26-hour exposure). Each bar represents the mean.+−.SEM of 6 to 8 determinations. *P<0.05, **P<0.01 vs. control.

[8] = test system: dermal fibroblasts; experiment: Collagen expression in human dermal fibroblasts; format: cell-based; conditions: 5 or 10 nM
Source text: (§5) We next examined whether skin fibroblasts lines had similar response. This was done with dermal fibroblasts kindly provided by Dr. Bashar Kahaleh. […] The magnitude of this response is illustrated by comparison to maximal doses of TGFβ, the “classic” stimulus for fibrosis (see below). In addition, we observed that an immortalized fibroblast line responded similarly to MBG, ouabain and digoxin.
(§6) Response of dermal fibroblasts to MBG as compared with TGF beta. Note that increase in collagen expression in MBG is approximately 10 fold with 5 or 10 nM MBG.

[9] = test system: fibroblast cell line; experiment: Procollagen expression in immortalized fibroblast cell line (Western blot); format: cell-based
Source text: as §5, §6

## C[C@]12CC[C@H](O)C[C@@]1(O)CC[C@@H]1[C@@H]2CC[C@]2(C)[C@@H](c3ccc(=O)oc3)C[C@H]3O[C@]132 [MBG, marinobufagenin]
[1]
  Response of procollagen expression in SYF cells: essentially no response
[2]
  Upregulation of procollagen expression in SYF+ cells: very similar way as the primary cardiac fibroblast cultures
[3]
  Procollagen stability (procollagen-1 expression after cycloheximide): did not detect any increases
[4]
  mRNA for collagen-1: doubling
[5]
  Threshold for inducing collagen expression relative to doses with detectable effects on 86Rb uptake: log units below
[6]; MBG infusion 10 μg/kg per day by minipump
  Plasma MBG: 484 ± 47 pmol/L
[6]; MBG infusion 10 μg/kg per day
  Plasma aldosterone: 205 ± 35 pg/mL
[7]
  TGF-β, Smad 2/3, Smad 4, pSmad 2/3 expression in vitro: did not observe significant changes
[8]
  Increase in collagen expression: approximately 10 fold
[9]
  Effect on fibroblast cell line expression of procollagen: Comparable effect

Reference: patent US9072751B2, “Na/K-ATPase ligand” (priority 2006, dated 2015)
